Reference: patent US20130266636A1, “METHODS FOR BLOCKING CELL PROLIFERATION AND TREATING DISEASES AND CONDITIONS RESPONSIVE TO CELL GROWTH INHIBITION” (THE REGENTS OF THE UNIVERSITY OF CALIFORNIA, priority 2010, published 2013)

What was measured:
phospho-S338 CRAF = molecular target: T1, phospho-S338 CRAF (Homo sapiens, UniProt P04049); assay: Phospho-S338 CRAF staining in orthotopic brain tumor xenografts; assay type: in vivo, mice; settings: systemic KG5 50 mg/Kg, 3 days
T1 construct: phospho-S338 CRAF in orthotopic brain tumor xenografts untreated or treated systemically with KG5; from tissue; host or cells: orthotopic U-87 glioblastoma xenografts in the brain of nude mice
T1 sequence (P04049 whole entry): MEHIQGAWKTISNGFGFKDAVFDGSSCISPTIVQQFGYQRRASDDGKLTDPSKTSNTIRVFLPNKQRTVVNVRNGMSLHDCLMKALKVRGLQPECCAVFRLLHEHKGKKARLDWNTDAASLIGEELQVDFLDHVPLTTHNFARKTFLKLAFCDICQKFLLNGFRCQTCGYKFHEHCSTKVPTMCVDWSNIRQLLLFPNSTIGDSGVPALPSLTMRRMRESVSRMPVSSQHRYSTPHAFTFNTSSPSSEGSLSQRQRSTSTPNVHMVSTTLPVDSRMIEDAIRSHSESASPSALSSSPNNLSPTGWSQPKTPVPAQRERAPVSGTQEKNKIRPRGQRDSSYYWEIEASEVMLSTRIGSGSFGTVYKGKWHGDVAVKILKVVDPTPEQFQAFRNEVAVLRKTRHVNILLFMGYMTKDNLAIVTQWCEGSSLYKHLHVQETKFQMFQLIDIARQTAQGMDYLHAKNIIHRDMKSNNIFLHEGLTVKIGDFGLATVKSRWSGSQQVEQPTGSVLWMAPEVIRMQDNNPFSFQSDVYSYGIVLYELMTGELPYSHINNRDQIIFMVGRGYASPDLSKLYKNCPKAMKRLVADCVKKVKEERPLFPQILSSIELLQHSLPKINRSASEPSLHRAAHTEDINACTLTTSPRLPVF
Description: FIG. 41. Phospho-5338 CRAF is highly expressed in tumors and can be blocked by an allosteric RAF inhibitor: FIG. 41(a) Immunohistochemical staining of phospho-S338 CRAF in normal human brain and human glioblastoma tissues. Scale bar, 100 μm. FIG. 41(b) Immunohistochemical staining of phospho-S338 CRAF in orthotopic brain tumor xenografts untreated or treated systemically with KG5 (50 mg/Kg) for 3 days. Scale bar, 50 p.m. FIG. 42. Phospho-5338 CRAF promotes mitosis: FIG. 42(a) Quantification of WT and CRAF−/− cells in the G1, S and G2/M phases of the cell cycle. Data are representative of three independent experiments. […] Cells in G2/M were quantified by flow cytometry. […] FIG. 42(d) Cells at pro-metaphase were quantified using confocal microscopy. […] FIG. 42(e) HCT-116 cells were transfected with control or CRAF siRNAs and cells in G2/M were quantified by flow cytometry. […] Lysates of these cells were analyzed for CRAF expression by immunoblotting (inset). […] Quantification of cells in G2/M was performed by flow cytometry. […]
Tumors were generated by injection of RFP-labeled U-87 human glioblastoma cells (10^5 tumorcells in 2 μl of sterile PBS) into the brain of 6-8 week old female nude mice. […] Brains were harvested at day 15 and fluorescence images recorded using the IVIS-200™ imaging system (Xenogen Corp., Hopkinton, Mass.). […]

[1] = tested on: human colon (HCT-116), pancreatic (Mia-Paca2, FG, XPA-1, BXPC3), breast (MDA-MB-231) and brain (U251) cancer cell lines; assay: Cell cycle analysis of proliferating tumor cell lines treated with KG5; assay type: cell-based; settings: all proliferating tumor cell lines tested
Description: FIG. 40. Allosteric inhibition of RAF arrests proliferating cells at pro-metaphase. FIG. 40(a) Cell cycle analysis and G2/M quantification of human colon (HCT-116), pancreatic (Mia-Paca2, FG, XPA-1, BXPC3), breast (MDA-MB-231) and brain (U251) cancer cell lines untreated or treated for 20 hours with 5 μM of KG5. Error bars represent s.d. (n=4); * two tailed p value=0.0023 using Mann Whitney U test. FIG. 40(b) HCT-116 cells were cultured under low (30%) or high (90%) confluency and treated with 1 μM KG5 for 20 hours. […] Error bars represent s.d. (n=3); * two tailed p value=0.0021 using Mann Whitney U test. FIG. 40(c) HCT-116 and XPA-1 cells were treated for 20 hours with 1 μM of KG5, stained for α-tubulin/DNA, and cells arrested in pro-metaphase were quantified by confocal microscopy. Error bars represent s.d. (n=3); * two tailed p value=0.0008 using Mann Whitney U test. Lysates from the same cells were also analyzed by immunoblotting for the expression of the mitotic marker phospho-Histone H3 (inset). Data are representative of three independent experiments.
Cell cycle analysis was performed by flow cytometry following propidium iodide staining. Briefly, cells were harvested, fixed with ice cold methanol, treated for 45 min with 10 μg/ml of RNase and resuspended in PBS containing 10 μg/ml of PI, and analyzed by flow cytometry. […]

CSc1nc(N)cc(Oc2ccc(-c3nnc(Nc4cccc(C(F)(F)F)c4)[nH]3)cc2)n1 [KG5]
phospho-S338 CRAF in orthotopic brain tumor tissues (phospho-S338 CRAF): qualitative decrease in phospho-5338 RAF | mitotic arrest and cell death [1]: mitotic arrest at pro-metaphase followed by cell death | phospho-S338 CRAF [1]: inhibition of phospho-S338 CRAF
